The results in this text go back to patent US20250100998A1, “PARP7 INHIBITORS” (Gilead Sciences, Inc., priority 2023, published 2025).

SMILES strings stand for the structures.

This assay relates to STAT1 (phosphorylated at Tyr701) in NCI-H1373 cells. As to the kind of experiment: Phospho-STAT1 (Tyr701) LANCE Ultra TR-FRET detection assay. Type of assay: cell-based. As to conditions: Homo sapiens, NCI-H1373, 48 h, induction of pSTAT1 in NCI-H1373 cells, 48 hours incubation; normalized to 10 uM positive control and DMSO; 4-parameter fit; read-out: NH1373 pSTAT1 EC50. The method, then: Phospho-STAT1 (Tyr701 LANCE Ultra TR-FRET Detection Assay
LANCE Ultra phospho-STAT1 (Tyr701) kits are designed for the detection of phosphorylated STAT1 in cell lysates using a simple, homogeneous LANCE Ultra sandwich assay (Cat. #TRF4028M). This assay is intended for assessing compound induction of endogenous levels of cellular STAT1 (phosphorylated at Tyr701) in NCI-H1373 cells. The NCI-H1373 cells are cultured in RPMI 1640 media containing 10% heat inactivated FBS, GlutaMAX, 1% Penicillin-Streptomycin. An Echo acoustic liquid handler is used to transfer 60 nanoliters of compound dilutions using the Echo Qualified, 384-well polypropylene microplate clear flat bottom source plates into a Greiner (#781080) cell culture microplate. NCI-H1373 cells are seeded into these compound-spotted culture plates at 30,000 cells/well in a 60 uL volume in growth media. The plates are incubated in a 5% CO2 humidified incubator at 37° C. for 48 hours. […] Briefly, […] of supplemented lysis buffer is added to each well and allowed to shake for 1 hour at 400 rpm. Next, 5 ul of remixed antibody solutions (vol/vol) prepared in detection buffer are added to each well and allowed to incubate at room temperature overnight. After spinning the plate down at 300 rpm for 1 min, the plate is read on an EnVision plate reader set up for Eu3+ Cryptate and fluorescence emission is measured at two different wavelengths (665 nm and 620 nm). The HTRF ratio is then calculated ([…]) for each well to determine the amount of pSTAT1 in the cell lysate, and the data is then normalized to 10 uM (S)-5-((1-(3-oxo-3-(4-(5-(trifluoromethyl)pyrimidin-2-yl)piperazin-1-yl)propoxy)propan-2-yl)amino)-4-(trifluoromethyl)pyridazin-3(2H)-one positive and DMSO negative controls. The values were then plotted as a function of compound concentration and a 4-parameter fit was applied to derive the EC50 values.
(In general: Time-resolved FRET reads energy transfer from a long-lived donor to a nearby acceptor.)
Regarding `CC(C)(O)c1cnc(-c2cc3c(F)cn(C[C@@H]4CCC[C@H](Oc5cn[nH]c(=O)c5C(F)(F)F)C4)c(=O)c3c(F)c2F)nc1` [Example 48, 4,7,8-trifluoro-6-(5-(2-hydroxypropan-2-yl)pyrimidin-2-yl)-2-(((1R,3S)-3-((6-oxo-5-(trifluoromethyl)-1,6-dihydropyridazin-4-yl)oxy)cyclohexyl)methyl)isoquinolin-1(2H)-one], the concentration for a half-maximal effect (EC50) is 1.03 nM.
For `O=c1[nH]ncc(O[C@H]2CCC[C@@H](Cn3ccc4cc(-c5ncc(C(F)F)cn5)c(F)c(F)c4c3=O)C2)c1C(F)(F)F` [Example 54, 6-(5-(difluoromethyl)pyrimidin-2-yl)-7,8-difluoro-2-(((1R,3S)-3-((6-oxo-5-(trifluoromethyl)-1,6-dihydropyridazin-4-yl)oxy)cyclohexyl)methyl)isoquinolin-1(2H)-one], the EC50 was found to be 2.38 nM.
Next, `COc1nc(-c2cc3ccn(C[C@@H]4CCC[C@H](Nc5cn[nH]c(=O)c5C(F)(F)F)C4)c(=O)c3cc2F)ncc1C#N` [Example 3, 2-(7-fluoro-1-oxo-2-(((1R,3S)-3-((6-oxo-5-(trifluoromethyl)-1,6-dihydropyridazin-4-yl)amino)cyclohexyl)methyl)-1,2-dihydroisoquinolin-6-yl)-4-methoxypyrimidine-5-carbonitrile]: 3.85 nM.
As for `O=c1[nH]ncc(N[C@@H]2C[C@H](Cn3ccc4cc(-c5ncc(C(F)(F)F)cn5)c(F)cc4c3=O)CC[C@@H]2O)c1C(F)(F)F` (racemic) [Example 68, 7-fluoro-2-(((rac-1R,3R,4S)-4-hydroxy-3-((6-oxo-5-(trifluoromethyl)-1,6-dihydropyridazin-4-yl)amino)cyclohexyl)methyl)-6-(5-(trifluoromethyl)pyrimidin-2-yl)isoquinolin-1(2H)-one], the EC50 was 65.1 nM.
`O=C1c2cc(F)c(-c3ncc(C(F)(F)F)cn3)cc2CN1C[C@@H]1CCC[C@H](Nc2cn[nH]c(=O)c2C(F)(F)F)C1` [Example 74, 6-fluoro-2-(((1R,3S)-3-((6-oxo-5-(trifluoromethyl)-1,6-dihydropyridazin-4-yl)amino)cyclohexyl)methyl)-5-(5-(trifluoromethyl)pyrimidin-2-yl)isoindolin-1-one]: the EC50 turned out to be 9.03 nM.
The value for `COc1cnc(-c2cc3c(F)cn(C[C@@H]4CCC[C@H](Oc5cn[nH]c(=O)c5C(F)(F)F)C4)c(=O)c3c(F)c2F)nc1` [Example 53, 4,7,8-trifluoro-6-(5-methoxypyrimidin-2-yl)-2-(((1R,3S)-3-((6-oxo-5-(trifluoromethyl)-1,6-dihydropyridazin-4-yl)oxy)cyclohexyl)methyl)isoquinolin-1(2H)-one] was 2.09 nM; that for `N#Cc1cnc(-c2cc3ccn(C[C@@H]4CCC[C@H](Nc5cn[nH]c(=O)c5C(F)(F)F)C4)c(=O)c3cc2F)nc1` [Example 2, 2-(7-fluoro-1-oxo-2-(((1R,3S)-3-((6-oxo-5-(trifluoromethyl)-1,6-dihydropyridazin-4-yl)amino)cyclohexyl)methyl)-1,2-dihydroisoquinolin-6-yl)pyrimidine-5-carbonitrile] was 11.8 nM; that for `O=c1[nH]ncc(N[C@H]2CCO[C@@H](Cn3ccc4cc(-c5nc6ccccn6n5)c(F)cc4c3=O)C2)c1C(F)(F)F` [Example 64, 7-fluoro-2-[[(2R,4S)-4-[[6-oxo-5-(trifluoromethyl)-1H-pyridazin-4-yl]amino]tetrahydropyran-2-yl]methyl]-6-([1,2,4]triazolo[1,5-a]pyridin-2-yl)isoquinolin-1-one] was 36.1 nM.
Next, `O=c1[nH]ncc(N[C@H]2CCC[C@@H](Cn3ccc4cc(-c5ncc(OCCO)cn5)c(F)c(F)c4c3=O)C2)c1C(F)(F)F` [Example 47, 7,8-difluoro-6-(5-(2-hydroxyethoxy)pyrimidin-2-yl)-2-(((1R,3S)-3-((6-oxo-5-(trifluoromethyl)-1,6-dihydropyridazin-4-yl)amino)cyclohexyl)methyl)isoquinolin-1(2H)-one]: 4.86 nM; `O=c1[nH]ncc(N[C@H]2CCC[C@@H](Cn3ccc4cc(-c5ncc(OCC(F)F)cn5)c(F)cc4c3=O)C2)c1C(F)(F)F` [Example 14, 6-(5-(2,2-difluoroethoxy)pyrimidin-2-yl)-7-fluoro-2-(((1R,3S)-3-((6-oxo-5-(trifluoromethyl)-1,6-dihydropyridazin-4-yl)amino)cyclohexyl)methyl)isoquinolin-1(2H)-one]: 44.2 nM.
The value for `CC(C)(O)c1cnc(-c2cc3ccn(C[C@@H]4CCC[C@H](Oc5cn[nH]c(=O)c5C(F)(F)F)C4)c(=O)c3cc2F)nc1` [Example 57, 7-fluoro-6-(5-(2-hydroxypropan-2-yl)pyrimidin-2-yl)-2-(((1R,3S)-3-((6-oxo-5-(trifluoromethyl)-1,6-dihydropyridazin-4-yl)oxy)cyclohexyl)methyl)isoquinolin-1(2H)-one] was 1.82 nM.
Consider `O=c1[nH]ncc(N[C@H]2CCC[C@@](O)(Cn3ccc4cc(-c5ncc(C(F)(F)F)cn5)c(F)cc4c3=O)C2)c1C(F)(F)F` [Example 63, 7-fluoro-2-[[(1S,3S)-1-hydroxy-3-[[6-oxo-5-(trifluoromethyl)-1H-pyridazin-4-yl]amino]cyclohexyl]methyl]-6-[5-(trifluoromethyl)pyrimidin-2-yl]isoquinolin-1-one], for which the EC50 was 1.87 nM.
Next, `O=c1[nH]ncc(N[C@H]2CCC[C@@H](Cn3ccc4cc(-c5ncc(-n6cccn6)cn5)c(F)cc4c3=O)C2)c1C(F)(F)F` [Example 1, 7-fluoro-2-[[(1R,3S)-3-[[6-oxo-5-(trifluoromethyl)-1H-pyridazin-4-yl]amino]cyclohexyl]methyl]-6-(5-pyrazol-1-ylpyrimidin-2-yl)isoquinolin-1-one]: 6.54 nM; `[2H]C([2H])([2H])Oc1cnc(-c2cc3c(cc2F)C(=O)N(C[C@@H]2CCC[C@H](Nc4cn[nH]c(=O)c4C(F)(F)F)C2)CC3)nc1` [Example 71, 7-fluoro-2-[[(1R,3S)-3-[[6-oxo-5-(trifluoromethyl)-1H-pyridazin-4-yl]amino]cyclohexyl]methyl]-6-[5-(trideuteriomethoxy)pyrimidin-2-yl]-3,4-dihydroisoquinolin-1-one]: 7.6 nM; `CC(C)(O)c1cnc(-c2cc3ccn(C[C@@H]4CCC[C@H](Oc5cn[nH]c(=O)c5C(F)(F)F)C4)c(=O)c3c(F)c2F)nc1` [Example 55, 7,8-difluoro-6-(5-(2-hydroxypropan-2-yl)pyrimidin-2-yl)-2-(((1R,3S)-3-((6-oxo-5-(trifluoromethyl)-1,6-dihydropyridazin-4-yl)oxy)cyclohexyl)methyl)isoquinolin-1(2H)-one]: 1.56 nM.
Next, `CS(=O)(=O)c1cnc(-c2cc3c(F)cn(C[C@@H]4CCC[C@H](Nc5cn[nH]c(=O)c5C(F)(F)F)C4)c(=O)c3cc2F)nc1` [Example 40, 4,7-difluoro-6-(5-methylsulfonylpyrimidin-2-yl)-2-[[(1R,3S)-3-[[6-oxo-5-(trifluoromethyl)-1H-pyridazin-4-yl]amino]cyclohexyl]methyl]isoquinolin-1-one]: 16.3 nM; `O=c1[nH]ncc(N[C@H]2CCO[C@@H](Cn3ccc4cc(-c5nc6ccccn6n5)c(F)c(F)c4c3=O)C2)c1C(F)(F)F` [Example 65, 7,8-difluoro-2-[[(2R,4S)-4-[[6-oxo-5-(trifluoromethyl)-1H-pyridazin-4-yl]amino]tetrahydropyran-2-yl]methyl]-6-([1,2,4]triazolo[1,5-a]pyridin-2-yl)isoquinolin-1-one1-one]: 20.3 nM; `O=c1[nH]ncc(N[C@H]2CCC[C@@H](Cn3ccc4cc(-c5ncc(F)cn5)c(F)cc4c3=O)C2)c1C(F)(F)F` [Example 12, 7-fluoro-6-(5-fluoropyrimidin-2-yl)-2-(((1R,3S)-3-((6-oxo-5-(trifluoromethyl)-1,6-dihydropyridazin-4-yl)amino)cyclohexyl)methyl)isoquinolin-1(2H)-one]: 23.2 nM.
The value for `COc1nc(-c2cc3ccn(C[C@@H]4CCC[C@H](Nc5cn[nH]c(=O)c5C(F)(F)F)C4)c(=O)c3c(F)c2F)ncc1C#N` [Example 22, 2-(7,8-difluoro-1-oxo-2-(((1R,3S)-3-((6-oxo-5-(trifluoromethyl)-1,6-dihydropyridazin-4-yl)amino)cyclohexyl)methyl)-1,2-dihydroisoquinolin-6-yl)-4-methoxypyrimidine-5-carbonitrile] was 2.42 nM; that for `O=c1[nH]ncc(N[C@H]2CCC[C@@H](Cn3cc(F)c4cc(-c5ncc(OCCO)cn5)c(F)cc4c3=O)C2)c1C(F)(F)F` [Example 38] was 12.5 nM.
On to `O=c1[nH]ncc(N[C@@H]2C[C@H](Cn3ccc4cc(-c5ncc(C(F)(F)F)cn5)c(F)cc4c3=O)CC(F)(F)C2)c1C(F)(F)F` (single isomer, unassigned) [Example 66], for which the EC50 is 29.2 nM.

The term EC50 denotes the concentration needed to bring the measured effect to its halfway point.
